Reference: patent publication US10364263B2, “Cyclic phosphates and cyclic phosphoramidates for the treatment of neurologic disorders” (Retrophin, Inc., priority 2015, dated 2019)

System: PANK2 silenced human neuroblastoma IMR32 cells (PANK2−/−)
Experiment: Coenzyme A assay in PANK2 silenced cells (LC-MS quantification of free CoA)
Type: cell-based
Conditions: compound added twice (24 h + 24 h), relative to 0.1% DMSO controls
Experimental: A human neuroblastoma IMR32 cell line (ATCC) with stably PANK2 silencing was obtained by lentiviral-delivered small hairpin RNA and cultured in MEM (Invitrogen) supplemented with 10% fetal bovine serum, 2 mM glutamine, 1% penicillin-streptomycin, 1 mM sodium pyruvate, 1 mM non essential amino acids and 1.5 g/l sodium bicarbonate.
For lentiviral shRNA expression, Human Emryonic Kidney HEK-293T cells (ATCC) were transfected with the appropriate pGFP-Lenti-shRNA constructs and packaging plasmids according to manufacturer's protocol (Origene Technologies, Inc.). Four different gene-specific shRNA expression vectors designed against multiple splice variants of PANK2 (Gene ID 80025) were used for transfection. A non-silencing shRNA construct (scrambled shRNA) and an empty vector expressing GFP alone were used as negative controls. The GFP tag subcloned into the lentiviral vectors was used to monitor the transfection efficiency.
IMR32 cells were plated on 150 cm dishes 48 h before transduction with lentiviral particles.
Three days after transduction medium was removed and replaced with fresh medium containing […] puromycin. Medium was replaced every 48 h. Levels of PANK2 expression on selected clones was assessed by Western Blot analysis.
To quantify CoA, PANK2^−/− IMR32 cells were plated on 12-well culture plates (Corning) at a density of 0.2×10^6 cells per well. After 72 h, compounds were freshly dissolved in DMSO and added to the culture medium to yield a final solvent concentration of 0.1% (v/v). Controls with medium containing 0.1% DMSO without test compounds were also included in each plate. Compound treated cells were incubated for 24 h at 37° C. Treatment was repeated after 24 h with newly dissolved compound and cells were further incubated at 37° C. for additional 24 h. Before LC-MS analysis of CoA levels, cells were harvested, counted, and collected in a 15 ml falcon tube and centrifuged at 200×g for 5 min at 4° C. Supernatant was removed and cell pellet was washed in 10 ml of ice-cold PBS. To further confirm that the numbers of cells in each sample were equivalent, an equal fraction of pellet was collected from each sample and subjected to protein determination analysis. After centrifugation and supernatant removal, the cell pellet was rapidly frozen in Liquid Nitrogen and stored at −80° C. until analysis.
Intracellular CoA levels were calculated considering an intracellular volume of 1 million cells=2 μl.
The 1×10^6 cellular pellet was extracted with 120 μl of aqueous 20% TFA. This solution was stirred for 2 min, sonicated in ultrasonic bath for 2 min, then stirred again for 1 min, and centrifuged for 15 min at 14000 g and at 4° C.
100 μL samples of supernatant were dried under N2 at 20° C. in the dark.
Samples were re-dissolved in 100 μl of 10 mM NH4^+ AcO^− buffer pH 5.1+IS (Dextrorphan 50 ng/ml), stirred for 2 min, sonicated in ultrasonic bath for 1 min, then stirred again for 1 min, and injected into LC-MS.
LC-MS/MS was performed using an Agilent HPLC (1100 Series, USA). The LC system was interfaced with an API-4000 Q-Trap triple quadrupole mass spectrometer (AB Sciex, Toronto, Canada) equipped with a TurbolonSpray ionization source operating in positive ion mode. Analyst™ software version 1.6 (AB Sciex, Toronto, Canada) was used for data acquisition and processing. CoA was separated using a Luna C18 column (2.0×50 mm; 5 μm particle size), column at 25° C. and flow rate of 0.2 ml/min. Injection volume was 15 μl. The mobile phases consisted of water containing 10 mM ammonium acetate pH 7 (mobile phase A) and MeCN-2-propanol 9:1 (mobile phase B). Elution was performed using a gradient starting at 2% B, holding at 2% B until 0.1 min, increasing to 98% B at 3.2 min, holding at 98% B until 4.5 min, returning to 2% B at 4.6 min and holding at 2% B until 7.5 min. Precursor ions and MRM transitions used were: CoA m/z 768.1→261.6 and 768.1→136.1. […]

`COC(=O)CCNC(=O)[C@@H]1O[P@@](=O)(N[C@@H](C)C(=O)OC)OCC1(C)C` [1-52, methyl 3-((2R,4R)-2-(((S)-1-methoxy-1-oxopropan-2-yl)amino)-5,5-dimethyl-2-oxido-3,3,2-dioxaphosphinane-4-carboxamido)propanoate] was tested, and the “PANK2−/− CoA (Fold Increase): fold increase in Coenzyme A (CoA) levels relative to controls” value was 2.09 Fold Increase.

In the case of `COC(=O)CCNC(=O)[C@@H]1OP(=O)(OCOC(=O)NCCOC(=O)[C@@H](NC(=O)OCc2ccccc2)C(C)C)OCC1(C)C` (stereo partly drawn) [2-181, 2-((((((4R)-4-((3-methoxy-3-oxopropyl)carbamoyl)-5,5-dimethyl-2-oxido-1,3,2-dioxaphosphuian-2-yl)oxy)methoxy)carbonyl)amino) ethyl((benzyloxy)carbonyl)-L-valinate], the “PANK2−/− CoA (Fold Increase): fold increase in Coenzyme A (CoA) levels relative to controls” value is reported as 49.59 Fold Increase.

With `COC(=O)CCNC(=O)[C@@H]1O[P@](=O)(OCOC(=O)c2sncc2C)OCC1(C)C` [2-177, (((2R,4R)-4-((3-methoxy-3-oxopropyl)carbamoyl)-5,5-dimethyl-2-oxido-1,3,2-dioxaphosphinan-2-yl)oxy)methyl 4-methylisothiazole-5-carboxylate] the “PANK2−/− CoA (Fold Increase): fold increase in Coenzyme A (CoA) levels relative to controls” value was 77.18 Fold Increase.

For `COC(=O)CCNC(=O)[C@@H]1O[P@@](=O)(OCOC(=O)c2scnc2C)OCC1(C)C` (single isomer, unassigned) [2-149], the “PANK2−/− CoA (Fold Increase): fold increase in Coenzyme A (CoA) levels relative to controls” value was 24.48 Fold Increase.

For `COC(=O)CCNC(=O)[C@@H]1O[P@@](=O)(OCCNC(C)=O)OCC1(C)C` [2-115, methyl 3-((2R,4R)-2-(2-acetamidoethoxy)-5,5-dimethyl-2-oxido-1,3,2-dioxaphosphinane-4-carboxamido)propanoate], the “PANK2−/− CoA (Fold Increase): fold increase in Coenzyme A (CoA) levels relative to controls” value was 1.6 Fold Increase.

For `COC(=O)CCNC(=O)[C@@H]1OP(=O)(OCOC(=O)c2cc(C)nn2C)OCC1(C)C` (stereo partly drawn) [2-145, (((4R)-4-((3-methoxy-3-oxopropyl)carbamoyl)-5,5-dimethyl-2-oxido-1,3,2-dioxaphosphinan-2-yl)oxy)methyl 1,3-dimethyl-1H-pyrazole-5-carboxylate], the “PANK2−/− CoA (Fold Increase): fold increase in Coenzyme A (CoA) levels relative to controls” value was 42.44 Fold Increase.

`COC(=O)CCNC(=O)[C@@H]1O[P@@](=O)(Oc2ccc([N+](=O)[O-])cc2)OCC1(C)C` [2-121, methyl 3-((2S,4R)-5,5-dimethyl-2-(4-nitrophenoxy)-2-oxido-1,3,2-dioxaphosphinane-4-carboxamido)propanoate] was tested, and the “PANK2−/− CoA (Fold Increase): fold increase in Coenzyme A (CoA) levels relative to controls” value was 1.59 Fold Increase.

In the case of `COC(=O)CCNC(=O)[C@@H]1OP(=O)(Oc2ccc(C(F)(F)F)nc2)OCC1(C)C` (stereo partly drawn) [2-122, methyl 3-((4R)-5,5-dimethyl-2-oxido-2-((6-(trifluoromethyl)pyridin-3-yl)oxy)-1,3,2-dioxaphosphinane-4-carboxamido)propanoate], the “PANK2−/− CoA (Fold Increase): fold increase in Coenzyme A (CoA) levels relative to controls” value is reported as 1.21 Fold Increase.

In the case of `COC(=O)CCNC(=O)[C@@H]1OP(=O)(OCOC(=O)NCCSC(C)=O)OCC1(C)C` (stereo partly drawn) [2-136, methyl 3-((4R)-2-((((2-(acetylthio)ethyl)carbamoyl)oxy)methoxy)-5,5-dimethyl-2-oxido-1,3,2-dioxaphosphinane-4-carboxamido)propanoate], the “PANK2−/− CoA (Fold Increase): fold increase in Coenzyme A (CoA) levels relative to controls” value is reported as 1.41 Fold Increase.

With `CC(C)OC(=O)CCNC(=O)[C@@H]1OP(=O)(O)OCC1(C)C` [2-110, isopropyl 3-((4R)-2-hydroxy-5,5-dimethyl-2-oxido-1,3,2-dioxaphosphinane-4-carboxamido)propanoate] the “PANK2−/− CoA (Fold Increase): fold increase in Coenzyme A (CoA) levels relative to controls” value was 2.17 Fold Increase.

`COC(=O)CCNC(=O)[C@@H]1O[P@](=O)(Oc2ccc(C[C@H](N)C(=O)OC)cc2)OCC1(C)C` [2-163, Methyl (S)-2-amino-3-(4-(((2R,4R)-4-((3-methoxy-3-oxopropyl)carbamoyl)-5,5-dimethyl-2-oxido-1,3,2-dioxaphosphinan-2-yl)oxy)phenyl)propanoate] was tested, and the “PANK2−/− CoA (Fold Increase): fold increase in Coenzyme A (CoA) levels relative to controls” value was 81.21 Fold Increase.

With `COC(=O)CCNC(=O)[C@@H]1O[P@@](=O)(Oc2ccccc2C(=O)OC)OCC1(C)C` [2-117, methyl 2-(((2S,4R)-4-((3-methoxy-3-oxopropyl)carbamoyl)-5,5-dimethyl-2-oxido-1,3,2-dioxaphosphinan-2-yl)oxy)benzoate] the “PANK2−/− CoA (Fold Increase): fold increase in Coenzyme A (CoA) levels relative to controls” value was 1.11 Fold Increase.

For `COC(=O)CCNC(=O)[C@@H]1O[P@@](=O)(OCn2ccnc2)OCC1(C)C` [2-132, methyl 3-((2S,4R)-2-((1H-imidazol-1-yl)methoxy)-5,5-dimethyl-2-oxido-1,3,2-dioxaphosphinane-4-carboxamido)propanoate], the “PANK2−/− CoA (Fold Increase): fold increase in Coenzyme A (CoA) levels relative to controls” value was 0.93 Fold Increase.

With `CCOC(=O)[C@H](CC(C)C)NP1(=O)OCC(C)(C)[C@H](C(=O)NCCC(=O)OC)O1` (stereo partly drawn) [compound 8, ethyl ((4R)-4-((3-methoxy-3-oxopropyl)carbamoyl)-5,5-dimethyl-2-oxido-3,3,2-dioxaphosphinan-2-yl)-L-leucinate] the “PANK2−/− CoA (Fold Increase): fold increase in Coenzyme A (CoA) levels relative to controls” value was 0.69 Fold Increase.

In the case of `COC(=O)CCNC(=O)[C@@H]1OP(=O)(N2CCN(C(C)=O)CC2)OCC1(C)C` (stereo partly drawn) [compound 139, methyl 3-((4R)-2-(4-acetylpiperazin-1-yl)-5,5-dimethyl-2-oxido-1,3,2-dioxaphosphinane-4-carboxamido)propanoate], the “PANK2−/− CoA (Fold Increase): fold increase in Coenzyme A (CoA) levels relative to controls” value is reported as 2.72 Fold Increase.

In the case of `COC(=O)CCNC(=O)[C@@H]1OP(=O)(N[C@@H](Cc2ccccc2)C(=O)OC)OCC1(C)C` (stereo partly drawn) [compound 9, methyl ((4R)-4-((3-methoxy-3-oxopropyl)carbamoyl)-5,5-dimethyl-2-oxido-1,3,2-dioxaphosphinan-2-yl)-L-phenylalaninate], the “PANK2−/− CoA (Fold Increase): fold increase in Coenzyme A (CoA) levels relative to controls” value is reported as 1.83 Fold Increase.

For `COC(=O)CCNC(=O)[C@@H]1O[P@](=O)(Oc2ccc(C#N)cc2)OCC1(C)C` [2-165, methyl 3-((2R,4R)-2-(4-cyanophenoxy)-5,5-dimethyl-2-oxido-1,3,2-dioxaphosphinane-4-carboxamido)propanoate], the “PANK2−/− CoA (Fold Increase): fold increase in Coenzyme A (CoA) levels relative to controls” value was 6.87 Fold Increase.

With `COC(=O)CCNC(=O)[C@@H]1OP(=O)(OCOC(=O)c2cc(C(C)(C)C)nn2C)OCC1(C)C` (stereo partly drawn) [2-144, (((4R)-4-((3-methoxy-3-oxopropyl)carbamoyl)-5,5-dimethyl-2-oxido-1,3,2-dioxaphosphinan-2-yl)oxy)methyl 3-(tert-butyl)-1-methyl-1H-pyrazole-5-carboxylate] the “PANK2−/− CoA (Fold Increase): fold increase in Coenzyme A (CoA) levels relative to controls” value was 77.8 Fold Increase.

`COC(=O)CCNC(=O)[C@@H]1O[P@@](=O)(OCOC(=O)N[C@@H](CSC(=O)C(C)(C)C)C(=O)OCc2ccccc2)OCC1(C)C` [2-164, Benzyl N-(((((2S,4R)-4-((3-methoxy-3-oxopropyl)carbamoyl)-5,5-dimethyl-2-oxido-1,3,2-dioxaphosphinan-2-yl)oxy)methoxy)carbonyl)-S-pivaloyl-L-cysteinate] was tested, and the “PANK2−/− CoA (Fold Increase): fold increase in Coenzyme A (CoA) levels relative to controls” value was 101.86 Fold Increase.

For `COC(=O)CCNC(=O)[C@@H]1O[P@](=O)(N2CCOCC2)OCC1(C)C` [compound 135, methyl 3-((2S,4R)-5,5-dimethyl-2-morpholino-2-oxido-1,3,2-dioxaphosphinane-4-carboxamido)propanoate], the “PANK2−/− CoA (Fold Increase): fold increase in Coenzyme A (CoA) levels relative to controls” value was 1.3 Fold Increase.
